Measured values reported in patent publication US10472354B2, “1,3-thiazol-2-yl substituted benzamides” (Bayer Aktiengesellschaft, priority 2014, dated 2019).

Tests used:
[1] = In vitro metabolic stability in rat hepatocytes; format: in vitro ADME; details: 1 μM, in vitro metabolic stability given as calculated maximal oral bioavailability
Method: Determination of in vitro metabolic stability in rat hepatocytes (including calculation of hepatic in vivo blood clearance (CL))
Hepatocytes from Han Wistar rats were isolated via a 2-step perfusion method. After perfusion, the liver was carefully removed from the rat: the liver capsule was opened and the hepatocytes were gently shaken out into a Petri dish with ice-cold Williams' medium E (WME). The resulting cell suspension was filtered through sterile gaze in 50 mL falcon tubes and centrifuged at 50×g for 3 min at room temperature. The cell pellet was resuspended in 30 mL WME and centrifuged through a Percoll® gradient for 2 times at 100×g. The hepatocytes were washed again with WME and resuspended in medium containing 5% FCS. Cell viability was determined by trypan blue exclusion.
The test compound was added to a final concentration of 1 μM. […] Samples were frozen at −20° C. overnight, subsequently centrifuged for 15 minutes at 3000 rpm and the supernatant was analyzed with an Agilent 1200 HPLC-system with LCMS/MS detection.
(§1) The half-life of a test compound was determined from the concentration-time plot. From the half-life (kel: slope of concentration-time plot; half-life=ln 2/kel) the intrinsic clearances were calculated. Together with the additional parameters liver blood flow, amount of liver cells in vivo and in vitro.
(§2) Metabolic instability is often the main clearance mechanism of xenobiotica leading to a high CL and low bioavailability which may eventually result in a short half-life and a low exposure after oral administration. Thus, reducing the susceptibility of metabolic degradation usually leads to a more favourable pharmacokinetic profile. When using liver microsomes as incubation matrix main phase I metabolic reactions, typically oxidoreductive reactions by cytochrome P450 enzymes and flavin mono-oxygenases (FMO) and hydrolytic reactions by esterases/amidases/epoxidhydrolases, are described. When the incubation of the test compound is performed in a hepatocyte matrix all potential hepatic metabolic processes (phase I and phase II) are covered.

[2] = Human liver cytosol stability assay; format: in vitro ADME; details: 4 h incubation, 37° C.
Method: Human Liver Cytosol Stability Assay
Method description: Human liver cytosol (pooled, >30 male and female donors) was incubated with individual test compounds in order to compare the extent of depletion of test compound and formation of the respective oxidised metabolite. […] An incubation volume of 1000 μL was used. The test compound was added from a stock solution in acetonitrile at 1 or 10 μM concentration in the incubation. Incubations were performed at 37° C. Reactions were stopped at 0 h and 4 h after incubation by addition of 100 μL acetonitrile to 250 μL of incubation mixture. Precipitated proteins were removed by centrifugation at approximately 3000 rpm. The supernatants were stored at approximately −20° C. until they were analysed. […]
Data analysis: The depletion of the test compound and formation of the corresponding metabolites were determined by decrease or increase of the corresponding peak area in the chromatogram after UV detection at approximately 300 nm 4 h after incubation compared to that at 0 h after incubation. […]

vaginal hyperalgesia = experiment: Rat dyspareunia model (visceromotor response to vaginal distension); format: in vivo; details: 15 mg/kg oral b.i.d. during 2 weeks, 5 and 6 weeks post-implantation
Source text: The visceromotor response (VMR) to vaginal distension was used in conscious animals as an objective measure of vaginal sensitivity. Briefly, animals in estrus phase were surgically implanted with biopsies of left uterine horn (3×3 mm) around alternate cascade mesenteric arteries that supply the small intestine (4 pieces) and on the wall of the distal colon (2 pieces). To measure VMR response, 2 Teflon-coated wire electrodes were sutured in the external oblique abdominal muscle, and tunneled subcutaneously to be exteriorized at the base of the neck for future access. On the day of VMR assessment, a lubricated small balloon (1 cm length) was inserted into the mid-vaginal canal. […] The electrodes were connected to an amplifier (Animal Bio Amp, ADInstruments), and the abdominal electromyographic signal was recorded using a data acquisition system (PowerLab, ADInstruments) for off-line analysis using LabChart version 7. The number of abdominal muscle contractions was counted manually for each 0.1 ml distension step, as an index of vaginal pain. […] Statistical Analysis All data were expressed as mean±standard deviation (s.d.), for the number (n) of measured rats per group. […] Planned comparison of means (matched-volume versus vehicle) was performed using a Bonferroni post hoc test, provided that a main effect was detected. […]

[3] = In vitro metabolic stability in liver microsomes (calculation of CL and Fmax); format: in vitro ADME, human; details: 1 μM, in vitro metabolic stability given as calculated maximal oral bioavailability
Method: Determination of in vitro metabolic stability in microsomes (including calculation of hepatic in vivo blood clearance (CL) and of maximal oral bioavailability (Fmax))
The metabolic assay was started shortly afterwards by adding the test compound to the incubation at a final volume of 1 mL. Organic solvent in the incubations was limited to ≤0.01% dimethylsulfoxide (DMSO) and ≤1% acetonitrile. […] Samples were frozen at −20° C. overnight, subsequently centrifuged for 15 minutes at 3000 rpm and the supernatant was analyzed with an Agilent 1200 HPLC-system with LCMS/MS detection.
as §1, with “specific” for “amount of”, “weight and microsomal protein content the hepatic” for “cells”, “vivo blood clearance (CL)” for “vivo”, “the maximal oral bioavailability (Fmax) were calculated for the different species.” for “in vitro.”
as §2

CYP2C8 = CYP2C8 (Homo sapiens (Human), UniProt P10632); experiment: CYP inhibition assay, CYP2C8; format: in vitro ADME; details: human liver microsomes, probe amodiquine
Chain of CYP2C8 (P10632 whole entry): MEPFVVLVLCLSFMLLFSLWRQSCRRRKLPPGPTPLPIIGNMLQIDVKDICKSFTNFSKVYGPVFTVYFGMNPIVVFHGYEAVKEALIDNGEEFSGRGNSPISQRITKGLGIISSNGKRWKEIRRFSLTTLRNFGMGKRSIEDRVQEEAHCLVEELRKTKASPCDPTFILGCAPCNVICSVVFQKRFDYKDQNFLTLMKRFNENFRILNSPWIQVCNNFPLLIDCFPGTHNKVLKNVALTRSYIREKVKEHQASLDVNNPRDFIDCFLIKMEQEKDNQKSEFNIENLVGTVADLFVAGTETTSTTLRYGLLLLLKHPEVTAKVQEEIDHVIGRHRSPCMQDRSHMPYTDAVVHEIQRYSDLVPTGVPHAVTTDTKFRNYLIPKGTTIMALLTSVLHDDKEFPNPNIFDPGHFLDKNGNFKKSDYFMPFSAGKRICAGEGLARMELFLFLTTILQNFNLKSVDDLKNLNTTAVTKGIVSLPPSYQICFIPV
Method: (§3) Method Description CYP Inhibition Assay
(§4) Data analysis: The CYP-mediated activities in the presence of inhibitors were expressed as percentages of the corresponding control values. A sigmoid-shaped curve was fitted to the data, and the enzyme inhibition parameter IC50 was calculated using a nonlinear least-squares regression analysis of the plot of percent control activity versus concentration of the test inhibitor.

CYP1A2 = CYP1A2 (Homo sapiens (Human), UniProt P05177); experiment: CYP inhibition assay, CYP1A2
Chain of CYP1A2 (P05177 whole entry): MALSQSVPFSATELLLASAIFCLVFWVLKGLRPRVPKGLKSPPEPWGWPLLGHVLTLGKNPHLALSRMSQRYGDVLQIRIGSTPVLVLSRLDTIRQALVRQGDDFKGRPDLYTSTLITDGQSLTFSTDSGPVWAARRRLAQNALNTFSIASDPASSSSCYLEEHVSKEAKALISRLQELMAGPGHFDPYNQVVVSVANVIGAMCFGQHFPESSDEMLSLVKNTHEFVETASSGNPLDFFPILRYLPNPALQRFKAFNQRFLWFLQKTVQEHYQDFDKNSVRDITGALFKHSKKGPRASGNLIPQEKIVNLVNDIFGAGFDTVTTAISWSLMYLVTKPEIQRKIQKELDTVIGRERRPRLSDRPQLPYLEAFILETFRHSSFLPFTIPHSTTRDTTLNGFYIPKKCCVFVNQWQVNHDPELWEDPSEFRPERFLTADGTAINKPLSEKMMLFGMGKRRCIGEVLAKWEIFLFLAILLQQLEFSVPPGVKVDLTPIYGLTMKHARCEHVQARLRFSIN
Method: as §3, §4

CYP2C9 = CYP2C9 (Homo sapiens (Human), UniProt P11712); experiment: CYP inhibition assay, CYP2C9; format: in vitro ADME; details: human liver microsomes, probe diclofenac
Chain of CYP2C9 (P11712 whole entry): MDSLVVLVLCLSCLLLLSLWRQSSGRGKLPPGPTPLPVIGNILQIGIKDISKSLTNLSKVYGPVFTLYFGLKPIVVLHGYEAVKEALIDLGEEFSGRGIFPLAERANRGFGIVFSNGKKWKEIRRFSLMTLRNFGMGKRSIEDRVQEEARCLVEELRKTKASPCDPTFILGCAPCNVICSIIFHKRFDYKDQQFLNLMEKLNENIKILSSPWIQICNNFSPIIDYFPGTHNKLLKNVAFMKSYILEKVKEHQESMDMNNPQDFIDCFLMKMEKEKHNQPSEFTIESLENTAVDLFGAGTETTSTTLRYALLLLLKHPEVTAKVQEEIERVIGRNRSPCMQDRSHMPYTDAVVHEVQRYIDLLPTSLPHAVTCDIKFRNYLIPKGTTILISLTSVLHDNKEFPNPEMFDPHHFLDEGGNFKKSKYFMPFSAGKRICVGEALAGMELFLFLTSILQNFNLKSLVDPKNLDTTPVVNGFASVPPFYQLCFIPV
Method: as §3, §4

CYP3A4 = CYP3A4 (Homo sapiens (Human), UniProt P08684); experiment: CYP inhibition assay, CYP3A4; format: in vitro ADME; details: human liver microsomes, probe midazolam
Chain of CYP3A4 (P08684 whole entry): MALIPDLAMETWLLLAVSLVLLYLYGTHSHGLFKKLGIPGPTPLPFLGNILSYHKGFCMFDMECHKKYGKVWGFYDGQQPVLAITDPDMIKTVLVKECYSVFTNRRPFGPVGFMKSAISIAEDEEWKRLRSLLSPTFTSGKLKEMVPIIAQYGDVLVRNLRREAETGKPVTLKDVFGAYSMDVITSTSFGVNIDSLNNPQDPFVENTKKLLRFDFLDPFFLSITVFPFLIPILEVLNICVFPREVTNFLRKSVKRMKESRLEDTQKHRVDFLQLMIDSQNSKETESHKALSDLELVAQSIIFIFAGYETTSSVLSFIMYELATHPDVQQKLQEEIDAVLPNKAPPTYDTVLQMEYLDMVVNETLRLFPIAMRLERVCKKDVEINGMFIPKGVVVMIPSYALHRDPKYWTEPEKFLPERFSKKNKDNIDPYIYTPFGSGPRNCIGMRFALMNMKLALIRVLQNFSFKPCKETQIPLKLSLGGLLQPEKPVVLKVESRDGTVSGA
Method: as §3, §4

CYP2D6 = CYP2D6 (Homo sapiens (Human), UniProt P10635); experiment: CYP inhibition assay, CYP2D6; format: in vitro ADME; details: human liver microsomes, probe dextromethorphan
Chain of CYP2D6 (P10635 whole entry): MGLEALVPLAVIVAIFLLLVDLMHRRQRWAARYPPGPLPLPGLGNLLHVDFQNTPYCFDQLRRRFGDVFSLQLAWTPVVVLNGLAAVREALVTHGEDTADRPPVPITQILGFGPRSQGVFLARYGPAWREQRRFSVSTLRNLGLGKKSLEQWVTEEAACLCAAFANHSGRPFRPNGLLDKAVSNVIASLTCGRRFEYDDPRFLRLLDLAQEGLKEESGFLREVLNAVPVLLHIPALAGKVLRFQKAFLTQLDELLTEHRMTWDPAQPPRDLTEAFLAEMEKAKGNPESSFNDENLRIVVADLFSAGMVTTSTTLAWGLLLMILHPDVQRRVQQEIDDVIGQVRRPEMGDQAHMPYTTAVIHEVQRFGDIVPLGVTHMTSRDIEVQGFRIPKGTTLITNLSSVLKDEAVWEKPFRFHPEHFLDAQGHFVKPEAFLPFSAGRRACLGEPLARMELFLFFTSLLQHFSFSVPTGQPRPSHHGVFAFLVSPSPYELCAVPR
Method: as §3, §4

[4] = clinical PhII trials; side effect attributed to blockade of P2X2/3 channels; cited from earlier work

Cc1cnc(-c2cc(O[C@@H]3CCOC3)cc(C(=O)N[C@H](C)c3cnc(C(F)(F)F)nc3)c2)s1 [Example 11, 3-(5-Methyl-1,3-thiazol-2-yl)-5-[(3R)-tetrahydrofuran-3-yloxy]-N-{(1R)-1-[2-(trifluoromethyl)pyrimidin-5-yl]ethyl}benzamide]
Rat hepatocyte Fmax [1]: 52%
Test compound turnover after 4 h [2]: 0.9%
Vaginal hyperalgesia compared to vehicle-treated animals (vaginal hyperalgesia): decreased vaginal hyperalgesia
Human liver microsome Fmax [3]: 57%

Cc1cnc(-c2cc(OC(C)C(C)O)cc(C(=O)N[C@H](C)c3cnc(C(F)(F)F)nc3)c2)s1 (single isomer, unassigned) [Example 339]
IC50 (CYP2C8): > 20 µM
Rat hepatocyte Fmax [1]: 52%
IC50 (CYP1A2): > 20 µM
Human liver microsome Fmax [3]: 94%
IC50 (CYP2C9): > 20 µM
IC50 (CYP3A4): > 20 µM
IC50 (CYP2D6): > 20 µM

COc1cc(C(C)C)c(Oc2cnc(N)nc2N)cc1S(N)(=O)=O [AF-219]
taste disturbances in treated subjects [4]: leads to taste disturbances

Cc1cnc(-c2cc(OC(C)C(C)O)cc(C(=O)N[C@H](C)c3cnc(C(F)(F)F)nc3)c2)s1 (single isomer, unassigned) [Example 340]
Rat hepatocyte Fmax [1]: 64%
Human liver microsome Fmax [3]: 90%

CCc1cnc(-c2cc(OC[C@H]3CN(C)CCO3)cc(C(=O)N[C@H](C)c3ccc(C(F)(F)F)nn3)c2)s1 [Example 419, 3-(5-ethyl-1,3-thiazol-2-yl)-5-{[(2R)-4-methylmorpholin-2-yl]methoxy}-N-{(1R)-1-[6-(trifluoromethyl)pyridazin-3-yl]ethyl}benzamide]
Rat hepatocyte Fmax [1]: 51%
Human liver microsome Fmax [3]: 74%

Cc1cnc(-c2cc(O[C@H]3CCOC3)cc(C(=O)N[C@H](C)c3cnc(C(F)(F)F)nc3)c2)s1 [Example 26, 3-(5-Methyl-1,3-thiazol-2-yl)-5-[(3S)-tetrahydrofuran-3-yloxy]-N-{(1R)-1-[2-(trifluoromethyl)pyrimidin-5-yl]ethyl}benzamide]
Rat hepatocyte Fmax [1]: 56%
Test compound turnover after 4 h [2]: 0.9%
Human liver microsome Fmax [3]: 67%

Cc1cnc(-c2cc(OC(C)C(C)O)cc(C(=O)N[C@H](C)c3ccc(C(F)(F)F)nn3)c2)s1 (single isomer, unassigned) [Example 183]
Rat hepatocyte Fmax [1]: 43%
Human liver microsome Fmax [3]: 74%

Cc1cnc(-c2cc(OC(C)C(C)O)cc(C(=O)N[C@H](C)c3cnc(C(F)(F)F)nc3)c2)s1 (single isomer, unassigned) [Example 163]
Rat hepatocyte Fmax [1]: 53%
Human liver microsome Fmax [3]: 100%
